From US20030050305A1, “Thromboxane inhibitors, compositions and methods of use” (priority 2000, published 2003)
One block for each compound: values may come before it.

Columns and labels:
[1] = system: Human corpus cavernosum tissue; test: Relaxation of human corpus cavernosum tissue strips contracted with phenylephrine (organ chamber); settings: for Relative potency in relaxing human corpus cavernosum tissue (FIG. 1B): after treatment with 0.02 μM SQ 29548; for Relaxation response in tissue from diabetic compared to non-diabetic patients (FIG. 4A, 4B): increasing concentrations of the prostaglandin alone
Description: (§1) Human corpus cavernosum specimens were obtained from impotent men at the time of penile prosthesis insertion. Tissues were maintained at 4-6° C. in M-400 solution, pH 7.4 (composition per 100 ml: mannitol, 4.19 g; KH2PO4, 0.205 g; K2HPO4.3H2O, 0.97 g; KCl, 0.112 g; NaHCO3, 0.084 g) until used. Corpus cavernosum tissues were typically used between 2 and 16 hours from extraction.
(§2) Measurement of the relaxation of corpus cavemosal tissue was carried out as follows. Corpus cavernosal tissue strips (3×3×7 mm) were immersed in a 8 ml organ chamber containing physiological salt solution, maintained at 37° C. and aerated with 5% CO2/95% air, pH 7.4. The tissues were then contracted with phenylephrine (1 μM) and the relaxation response was evaluated after the cumulative addition of the compound to the organ chamber.
(§3) In experiments where the effect of the thromboxane A2 receptor antagonist, SQ 29548 , was measured, […] was added 20 minutes before the addition of phenylephrine. In experiments where the effect of the thromboxane A2 agonist, U 46619 was measured, U 46619 was added after the phenylephrine-induced contractions stabilized, and then prostaglandin PGE1 was added 10 minutes later, if required.
The data are expressed as mean i standard error of the percentage of total relaxation induced by 100 μM papaverine hydrochloride. Statistical analysis were conducted using a two-factor ANOVA statistical analysis using StatView software for Apple computers.

[2] = system: Human corpus cavernosum resistance arteries (helicine arteries); test: Relaxation of human corpus cavernosum resistance arteries contracted with norepinephrine (myograph); settings: SQ 29548 0.02 μM; increasing concentrations of acetylcholine; contracted with 1 μM norepinephrine; P<0.01
Description: Human corpus cavernosum tissues were prepared according to Example 1. Penile small arteries, helicine arteries (lumen diameter 150-400 μ), which are the terminal branches of deep penile arteries, were dissected by carefully removing the adhering trabecular tissue. Arterial ring segments (2 mm long) were subsequently mounted on two 40 μm wires on microvascular double Halpern-Mulvany myographs (J. P. Trading, Aarhus, Denmark) for isometric tension recordings.
Measurement of the relaxation of corpus cavernosal resistant arteries was carried out as follows. […]
The segments were then exposed to 125 mM K^+ (physiological salt solution potassium salt form, by the equimolar substitution of […] in physiological salt solution) and the contraction response was measured. The arteries were contracted with 1 μM norepinephrine and relaxation responses were evaluated by cumulative additions of the acetylcholine (1 nM to 3 μ) to the organ chamber. The segments were washed with fress physiological salt solution, treated with the thromboxane inhibitor SQ 29548 (0.02 μM) and the response to acetylcholine measured again.

[3] = system: Human corpus cavernosum tissue; test: Contractile response of human corpus cavernosum tissue from diabetic and non-diabetic patients to U 46619; settings: tissue from diabetic vs non-diabetic patients; P<0.01
Description: as §1, §2, §3
The tissues were prepared according to Example 1. […]

[4] = contracted with 1 μM phenylephrine

SMILES: CCCCC[C@H](O)CC[C@H]1[C@H](O)CC(=O)[C@@H]1CCCCCCC(=O)O [PGE0]
Relative potency in relaxing human corpus cavernosum tissue (FIG. 1B) [1, 4]: equipotent
Response of the tissue to increasing concentrations of the prostaglandin alone (FIG. 1A) ([1]; higher concentrations of PGE0, absence of SQ 29548, contracted with 1 μM phenylephrine): significant contraction of the tissue
Relaxation response in tissue from hypertensive compared to non-hypertensive patients (FIG. 7) ([1]; increasing concentrations of PGE0, contracted with 1 μM phenylephrine, P<0.01): significant reduction in the relaxation of the tissue from hypertensive patients
Relaxation response in tissue from diabetic compared to non-diabetic patients (FIG. 4A, 4B) [1, 4]: significant reduction in the relaxation of the tissue from diabetic patients

SMILES: CCCCC[C@H](O)/C=C/[C@H]1[C@H](O)CC(=O)[C@@H]1CCCCCCC(=O)O [PGE1, alprostadil]
Relative potency in relaxing human corpus cavernosum tissue (FIG. 1B) [1, 4]: equipotent
Relaxation response in tissue from diabetic compared to non-diabetic patients (FIG. 4A, 4B) [1, 4]: no difference in the relaxation response

Effect of the thromboxane A2 receptor antagonist on the relaxation induced by PGE0 (FIG. 2) ([1]; SQ 29548 0.02 μM, added 20 minutes before phenylephrine, increasing concentrations of PGE0, P<0.01): significant relaxation of the tissue
Effect of the thromboxane A2 receptor antagonist on the relaxation induced by acetylcholine (FIG. 8) [2]: significant relaxation of the tissue
SMILES: O=C(O)CCC/C=C\C[C@@H]1[C@H](CNNC(=O)Nc2ccccc2)[C@H]2CC[C@@H]1O2 [SQ 29548]
Effect on the reduced relaxation to PGE0 of tissue from diabetic patients (FIG. 5) ([1]; addition of 0.02 μM SQ 29548, diabetic vs non-diabetic tissue): This reduction in the relaxation of the tissue was eliminated

Effect of the thromboxane A2 receptor agonist on the relaxation induced by PGE1 (FIG. 3) ([1]; U 46619 0.003 μM, increasing concentrations of prostaglandin, P<0.01): significant contraction of the tissue
SMILES: CCCCC[C@H](O)/C=C/[C@@H]1[C@@H](C/C=C\CCCC(=O)O)[C@H]2CO[C@@H]1C2 [U 46619]
Contraction response induced by increasing concentrations of the thromboxane agonist (FIG. 6) [3]: significant contraction of the tissue obtained from diabetic patients
